# From patent US20040072842A1 (published 2004)
row,melting point,SMILES
1,166 to 168 °C,O=C(COCc1ccccc1)N1CCN(c2ccc(N3C[C@H](CNC(=S)C(F)F)OC3=O)cc2)CC1
2,151 to 152 °C,O=C(CO)N1CCC(c2ccc(N3C[C@H](CNC(=S)C(F)F)OC3=O)cc2F)CC1
